What was measured:
[1] = DMSO, room temperature, FIG. 5
[2] = system: Peripheral blood mononuclear cells (PBMC); test: Cell viability assay (MTS assay) on PBMC; type: cell-based, human; details: two fold dilutions starting from 10^−4M, FIG. 8 / FIG. 9
Description: Cytotoxicity of these calixarenes were conducted using Peripheral Blood Mononucleus Cell line (PBMC) which were extracted from subjects blood (50 ml sample). Each calixarene compound was tested on three subjects out of a pool of 5 people (all caucasian females of 20-25 years of age). The extracted cell content represent 1% of the blood sample and comprised of Lymphocyte (60%) and monocytes (10-15%). The experiment was conducted by incubating the cells in a 96 well plate in triplicate with the calixarenes for 24 hours at different concentrations at an estimated concentration of 100000 cells per well.
A pipeline was designed to obtain reliable preliminary toxicology data in vitro. The pipeline was designed to allow testing of any particles of interest within a short time frame. […]
PBMC were harvested using the Ficoll method. […] The cells are then suspended in freezing media (10% DMSO in HIFCS) at 10 million cells per ml and stored as 1 ml aliquots in liquid nitrogen until it is ready for use. […]
CellTitre 96© Aqueous One Solution Cell Proliferation Assay was used to measure cell viability. […] The PHA was added to trigger activation of lymphocytes which was hypothesised that it may alter the reading of the MTS assay. […] The plate is further incubated for another 4 hours and is read through a spectrophotometer at 490 nm. […]

[3] = system: Peripheral blood mononuclear cells (PBMC): lymphocytes and monocytes; test: 5 colour flow cytometry of PBMC after exposure to calixarenes; type: cell-based, human; details: 24 hours, 10^-4M, 2.5×10^-5M, 3.13×10^-6M
Description: A 5 colour flow cytometry based assay was done to complement the MTS assay to provide a better snapshot of the toxicology profile of the calixarenes. Four concentrations from the MTS assay graph results (Control, 1, 1/4 dilution and 1/32 dilution) were chosen to illustrate the differences in cell profiles after the exposure of the calixarenes. 500,000 cells in 0.5 ml was cultured with 50 μL of calixarenes in polypropylene tubes (BD Falcon, Sarstedt) for 24 hours at 37° C., 5% CO2, 10° angle with the lid loosely closed. Polypropylene tube cultures were chosen as it provides better yield of monocytes.
After the 24 hour incubation, a cell count was performed to ensure there were at least 200,000 cells in each sample. The cells were centrifuged at 400G for 8 minutes and washed twice with flow buffer (10% bovine serum albumin in 1×PBS) by centrifugation at 400G for 8 minutes. An antibody cocktail of 10 μL annexin V FITC (marker used to detect apoptosis of cells), 5 μL CD3 APC (marker for detection of T-cells), 2.5 μL CD14 PECy7 (marker for detection of monocytes), 5 μL HLA-DR PE (marker for detection of cell activation) and 5 μL 7-AAD (marker to detect cell death) in each tube was prepared. The cells were resuspended in 200 μL of 1× Annexin V binding buffer. 100 μL of the resuspended cells were added to flow tubes containing the antibody cocktail and was incubated at room temperature in the dark for at least 15 minutes. The samples were then read using BD FACS Canto flow cytometer within an hour of antibody incubation. The experiment was replicated in triplicates using PBMC from different individuals.
Lymphocyte and monocyte population characteristics are summarised in the graph in FIG. 8. Lymphocyte and monocyte population numbers are based on total population while apoptotic cells, dead cells, live cells etc are based on their respective populations. Lymphocytes normally make up 60% of total population. […] However, this is most likely due to total lysis of cells, which cannot be detected by dead cell marker. Monocytes normally make up 10-15% of total population. The culturing process seems to cause most monocytes to be apoptotic due to their fragile nature.
Phosphonated calix[5]arene was tested with flow cytometry at the following concentrations; 10^-4M, 2.5×10^-5M (1 in 4 dilution) and 3.13×10^-6M (1 in 32 dilution). Lymphocyte and monocyte population characteristics are summarised in the graph in FIG. 9. Lymphocyte and monocyte population numbers are based on total population while apoptotic cells, dead cells, live cells etc are based on their respective populations. Lymphocytes normally make up 60% of total population. […] However, this is most likely due to total lysis of cells, which cannot be detected by dead cell marker. Monocytes normally make up 10-15% of total population. Culturing process seems to cause most monocytes to be apoptotic due to their fragile nature and this finding is in line with our literature review. There is a decline in monocyte numbers with increasing concentration of this calixarene.

Compound | time over which nano-rafts dissociate into solvated monomeric units [1] [h] | toxicity judged from cell viability (absorbance) [2] | monocyte numbers with increasing concentration [3] | proportion of dead lymphocytes with increasing concentration [3] | live monocytes population numbers with increasing concentration [3]
5,11,17,23-Tetra(dihydroxyphosphoryl)-25,26,27,28-tetrahydroxycalix[4]arene [phosphonated calix[4]arene] | 36 | no significant sign of toxicity | slight decline | seems to decline | –
O=P(O)(O)c1cc2c(O)c(c1)Cc1cc(P(=O)(O)O)cc(c1O)Cc1cc(P(=O)(O)O)cc(c1O)Cc1cc(P(=O)(O)O)cc(c1O)Cc1cc(P(=O)(O)O)cc(c1O)C2 [phosphonated calix[5]arene, 5,11,17,23,29-Penta(dihydroxyphosphoryl)-31,32,33,34,35-pentahydroxycalix[5] arene] | – | less toxicity with this calixarene than with sulphonated calixarenes | decline | seems to decline | seems to increase

Source: patent US8252954B2, “Processes for the preparation of calixarene derivatives” (The Curators of The University of Missouri, priority 2007, dated 2012)
